Test results reported in PubChem BioAssay (NCI).
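Grown in 96-well plates, cells were treated for 48 hours with each compound at five concentrations. Insufficient inhibition: endpoint recorded as highest concentration tested. Here, GI50 denotes the concentration required for 50% inhibition of growth. TGI is the concentration that stops growth completely.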

What was measured:
Test in all cases: DTP human tumour cell line panel, 48 h
786-0 renal = test system: 786-0 renal
A498 renal = test system: A498 renal
A549 NSCLC = test system: A549 NSCLC
ACHN renal = test system: ACHN renal
BT-549 breast = test system: BT-549 breast
CAKI-1 renal = test system: CAKI-1 renal
CCRF-CEM leukemia = test system: CCRF-CEM leukemia
COLO 205 colon = test system: COLO 205 colon
DU-145 prostate = test system: DU-145 prostate
EKVX NSCLC = test system: EKVX NSCLC
HCC-2998 colon = test system: HCC-2998 colon
HCT-116 colon = test system: HCT-116 colon
HCT-15 colon = test system: HCT-15 colon
HL-60(TB) leukemia = test system: HL-60(TB) leukemia
HOP-92 NSCLC = test system: HOP-92 NSCLC
HS 578T breast = test system: HS 578T breast
HT29 colon = test system: HT29 colon
IGROV1 ovarian = test system: IGROV1 ovarian
K-562 leukemia = test system: K-562 leukemia
KM12 colon = test system: KM12 colon
LOX IMVI melanoma = test system: LOX IMVI melanoma
M14 melanoma = test system: M14 melanoma
MALME-3M melanoma = test system: MALME-3M melanoma
MCF7 breast = test system: MCF7 breast
MDA-MB-231 breast = test system: MDA-MB-231 breast
MDA-MB-435 = test system: MDA-MB-435
MOLT-4 leukemia = test system: MOLT-4 leukemia
NCI-H226 lung = test system: NCI-H226 lung
NCI-H23 lung = test system: NCI-H23 lung
NCI-H460 lung = test system: NCI-H460 lung
NCI-H522 lung = test system: NCI-H522 lung
NCI/ADR-RES ovarian = test system: NCI/ADR-RES ovarian
OVCAR-3 ovarian = test system: OVCAR-3 ovarian
OVCAR-4 ovarian = test system: OVCAR-4 ovarian
OVCAR-5 ovarian = test system: OVCAR-5 ovarian
OVCAR-8 ovarian = test system: OVCAR-8 ovarian
PC-3 prostate = test system: PC-3 prostate
RPMI-8226 leukemia = test system: RPMI-8226 leukemia
RXF 393 renal = test system: RXF 393 renal
SF-268 CNS = test system: SF-268 CNS
SF-295 CNS = test system: SF-295 CNS
SF-539 CNS = test system: SF-539 CNS
SK-MEL-2 melanoma = test system: SK-MEL-2 melanoma
SK-MEL-28 melanoma = test system: SK-MEL-28 melanoma
SK-MEL-5 melanoma = test system: SK-MEL-5 melanoma
SK-OV-3 ovarian = test system: SK-OV-3 ovarian
SN12C renal = test system: SN12C renal
SNB-19 CNS = test system: SNB-19 CNS
SNB-75 CNS = test system: SNB-75 CNS
SR leukemia = test system: SR leukemia
T-47D breast = test system: T-47D breast
TK-10 renal = test system: TK-10 renal
U251 CNS = test system: U251 CNS
UACC-257 melanoma = test system: UACC-257 melanoma
UACC-62 melanoma = test system: UACC-62 melanoma
UO-31 renal = test system: UO-31 renal
HOP-62 NSCLC = test system: HOP-62 NSCLC
SW-620 colon = test system: SW-620 colon

## O=Nc1c(-c2c(O)[nH]c3cc(Br)ccc23)[nH]c2ccccc12
786-0 renal
  GI50: 1.22 µM
  TGI: 4.4 µM
A498 renal
  GI50: 0.416 µM
  TGI: 1.83 µM
A549 NSCLC
  GI50: 1.06 µM
  TGI: 4.89 µM
ACHN renal
  GI50: 0.519 µM
  TGI: 1.91 µM
BT-549 breast
  GI50: 0.716 µM
  TGI: 2.79 µM
CAKI-1 renal
  GI50: 0.109 µM
  TGI: 1.45 µM
CCRF-CEM leukemia
  GI50: 2.53 µM
  TGI: > 100 µM
COLO 205 colon
  GI50: 1.35 µM
  TGI: 2.84 µM
DU-145 prostate
  GI50: 1.23 µM
  TGI: 2.56 µM
EKVX NSCLC
  GI50: 1.3 µM
  TGI: 3.22 µM
HCC-2998 colon
  GI50: 1.6 µM
  TGI: 3.08 µM
HCT-116 colon
  GI50: 0.883 µM
  TGI: 2.27 µM
HCT-15 colon
  GI50: 0.963 µM
  TGI: 3.1 µM
HL-60(TB) leukemia
  GI50: 2.75 µM
  TGI: > 32.3 µM
HOP-92 NSCLC
  GI50: 1.97 µM
  TGI: 7.29 µM
HS 578T breast
  GI50: 0.239 µM
  TGI: 7.14 µM
HT29 colon
  GI50: 1.67 µM
  TGI: 3.44 µM
IGROV1 ovarian
  GI50: 0.14 µM
  TGI: 2.1 µM
K-562 leukemia
  GI50: 1.19 µM
  TGI: > 100 µM
KM12 colon
  GI50: 0.471 µM
  TGI: 1.94 µM
LOX IMVI melanoma
  GI50: 1.1 µM
  TGI: 2.55 µM
M14 melanoma
  GI50: 1.76 µM
  TGI: 3.48 µM
MALME-3M melanoma
  GI50: 2.35 µM
  TGI: 6.44 µM
MCF7 breast
  GI50: 1.83 µM
  TGI: 7.79 µM
MDA-MB-231 breast
  GI50: 1.82 µM
  TGI: 5.31 µM
MDA-MB-435
  GI50: 1.61 µM
  TGI: 3.01 µM
MOLT-4 leukemia
  GI50: 2.99 µM
  TGI: > 100 µM
NCI-H226 lung
  GI50: 0.932 µM
  TGI: 3.49 µM
NCI-H23 lung
  GI50: 1.63 µM
  TGI: 4.28 µM
NCI-H460 lung
  GI50: 1.29 µM
  TGI: 7.57 µM
NCI-H522 lung
  GI50: 1.1 µM
  TGI: 4.54 µM
NCI/ADR-RES ovarian
  GI50: 1.42 µM
  TGI: 4.48 µM
OVCAR-3 ovarian
  GI50: 0.648 µM
  TGI: 2.24 µM
OVCAR-4 ovarian
  GI50: 1.23 µM
  TGI: 5.37 µM
OVCAR-5 ovarian
  GI50: 2.25 µM
  TGI: 4.35 µM
OVCAR-8 ovarian
  GI50: 2.32 µM
  TGI: > 100 µM
PC-3 prostate
  GI50: 1.2 µM
RPMI-8226 leukemia
  GI50: 2.04 µM
  TGI: > 22.5 µM
RXF 393 renal
  GI50: 0.858 µM
  TGI: 3.42 µM
SF-268 CNS
  GI50: 1.52 µM
  TGI: 3.66 µM
SF-295 CNS
  GI50: 1.34 µM
  TGI: 5.57 µM
SF-539 CNS
  GI50: 0.734 µM
  TGI: 2.88 µM
SK-MEL-2 melanoma
  GI50: 1.11 µM
  TGI: 3.41 µM
SK-MEL-28 melanoma
  GI50: 2.37 µM
  TGI: 4.79 µM
SK-MEL-5 melanoma
  GI50: 0.723 µM
  TGI: 1.99 µM
SK-OV-3 ovarian
  GI50: 0.223 µM
  TGI: 2.94 µM
SN12C renal
  GI50: 0.785 µM
  TGI: 3.86 µM
SNB-19 CNS
  GI50: 5.07 µM
  TGI: 16.7 µM
SNB-75 CNS
  GI50: 0.285 µM
  TGI: 2.96 µM
SR leukemia
  GI50: 3.26 µM
  TGI: 64.2 µM
T-47D breast
  GI50: 1.98 µM
  TGI: 5.48 µM
TK-10 renal
  GI50: 0.954 µM
  TGI: 5.12 µM
U251 CNS
  GI50: 1.87 µM
  TGI: 8.52 µM
UACC-257 melanoma
  GI50: 2.05 µM
  TGI: 3.95 µM
UACC-62 melanoma
  GI50: 1.29 µM
  TGI: 2.95 µM
UO-31 renal
  GI50: 0.334 µM
  TGI: 2.03 µM

## Cn1cc(-c2nc(-c3c[nH]c4ncccc34)cs2)c2ccccc21
786-0 renal
  GI50: 91.7 µM
  TGI: > 100 µM
A498 renal
  GI50: 34.5 µM
  TGI: > 100 µM
A549 NSCLC
  GI50: 26.6 µM
  TGI: > 100 µM
ACHN renal
  GI50: 31.7 µM
  TGI: > 100 µM
BT-549 breast
  GI50: 23.7 µM
  TGI: > 100 µM
CAKI-1 renal
  GI50: 25.5 µM
  TGI: > 100 µM
CCRF-CEM leukemia
  GI50: 24.1 µM
  TGI: > 100 µM
COLO 205 colon
  GI50: 24.1 µM
  TGI: > 100 µM
DU-145 prostate
  GI50: 62.8 µM
  TGI: > 100 µM
EKVX NSCLC
  GI50: 0.368 µM
  TGI: 61.1 µM
HCC-2998 colon
  GI50: 1.16 µM
  TGI: > 100 µM
HCT-116 colon
  GI50: 24.2 µM
  TGI: > 100 µM
HCT-15 colon
  GI50: 1.47 µM
  TGI: > 100 µM
HL-60(TB) leukemia
  GI50: 10.7 µM
  TGI: > 100 µM
HOP-62 NSCLC
  GI50: 19.7 µM
  TGI: 68.4 µM
HOP-92 NSCLC
  GI50: 2.72 µM
  TGI: 36.2 µM
HS 578T breast
  GI50: > 100 µM
  TGI: > 100 µM
IGROV1 ovarian
  GI50: 6.66 µM
  TGI: > 100 µM
K-562 leukemia
  GI50: 4.48 µM
  TGI: > 100 µM
KM12 colon
  GI50: 0.975 µM
  TGI: 26.7 µM
LOX IMVI melanoma
  GI50: 24.5 µM
  TGI: > 100 µM
M14 melanoma
  GI50: 19.3 µM
  TGI: > 100 µM
MALME-3M melanoma
  GI50: 31.9 µM
  TGI: > 100 µM
MCF7 breast
  GI50: 0.401 µM
  TGI: 26.1 µM
MDA-MB-231 breast
  GI50: 1.03 µM
  TGI: 63.8 µM
MDA-MB-435
  GI50: 3.84 µM
  TGI: 30 µM
MOLT-4 leukemia
  GI50: 23 µM
  TGI: > 100 µM
NCI-H226 lung
  GI50: 14.2 µM
  TGI: > 100 µM
NCI-H23 lung
  GI50: 4.49 µM
  TGI: > 100 µM
NCI-H460 lung
  GI50: 1.27 µM
  TGI: > 100 µM
NCI-H522 lung
  GI50: 12.3 µM
  TGI: > 100 µM
NCI/ADR-RES ovarian
  GI50: 19.9 µM
  TGI: > 100 µM
OVCAR-3 ovarian
  GI50: 4.46 µM
  TGI: 24.7 µM
OVCAR-4 ovarian
  GI50: 0.117 µM
  TGI: > 100 µM
OVCAR-5 ovarian
  GI50: 0.762 µM
  TGI: 73.9 µM
OVCAR-8 ovarian
  GI50: 38.2 µM
  TGI: > 100 µM
PC-3 prostate
  GI50: 16.4 µM
  TGI: > 100 µM
RPMI-8226 leukemia
  GI50: 4.6 µM
  TGI: > 100 µM
RXF 393 renal
  GI50: 17.9 µM
  TGI: > 100 µM
SF-268 CNS
  GI50: 89.4 µM
  TGI: > 100 µM
SF-295 CNS
  GI50: 26.9 µM
  TGI: > 100 µM
SF-539 CNS
  GI50: 48.7 µM
  TGI: > 100 µM
SK-MEL-2 melanoma
  GI50: 54.7 µM
  TGI: > 100 µM
SK-MEL-28 melanoma
  GI50: 48.8 µM
  TGI: > 100 µM
SK-MEL-5 melanoma
  GI50: 0.595 µM
  TGI: > 100 µM
SK-OV-3 ovarian
  GI50: 65.3 µM
  TGI: > 100 µM
SN12C renal
  GI50: > 100 µM
  TGI: > 100 µM
SNB-19 CNS
  GI50: 71.4 µM
  TGI: > 100 µM
SNB-75 CNS
  GI50: 18.5 µM
  TGI: > 100 µM
SR leukemia
  GI50: 3.72 µM
  TGI: > 100 µM
SW-620 colon
  GI50: 35.9 µM
  TGI: > 100 µM
T-47D breast
  GI50: 0.414 µM
  TGI: 26.9 µM
TK-10 renal
  GI50: 5.78 µM
  TGI: 78.3 µM
U251 CNS
  GI50: 24.8 µM
  TGI: > 100 µM
UACC-257 melanoma
  GI50: 66.3 µM
  TGI: > 100 µM
UACC-62 melanoma
  GI50: 30.5 µM
  TGI: > 100 µM
UO-31 renal
  GI50: > 100 µM
  TGI: > 100 µM
